# Data published in patent publication US9492454B2, “Use of pemirolast in the treatment of acute asthma” (RSPR PHARMA AB, priority 2014, dated 2016).
# Entries after “also recorded” stand apart in the source; their conditions may differ. Where two headings read alike, the source gives them in different places.
# Tests used:
# [1] = parameters: species or system Beagles (dog); details: dog, in vivo
# Excerpt: There were no major differences in kinetics between males and females.
# hERG potassium channel = hERG potassium channel (Homo sapiens, UniProt Q12809)
# Protocol: This study was performed by PhysioStim, France, a GLP compliant facility.
# The effects of pemirolast on hERG currents in HEK-293 cells stably expressing the hERG potassium channel were studied using patch-clamp technique.
# human bronchial tissue = assay: Bronchodilatory effect on pre-contracted isolated human bronchi (myograph, isometric tension); assay type: cell-based; details: for effect on bronchoconstriction induced by carbachol: carbachol 3 μM; for effect on bronchoconstriction induced by histamine: histamine 1 μM
# [2] = Later pharmacokinetic studies in healthy volunteers (multiple doses); assay type: in vivo, human; details: 80, 200 and 320 mg b.i.d. for three and a half days
# isolated tracheal muscle = details: isolated guinea pig tracheal muscle, cited from earlier work
# [3] = system: antigen- and PAF-induced bronchoconstriction; details: pre-administration, guinea pigs in vivo; cited from earlier work
# [4] = Single and multiple-dose open safety, tolerability and pharmacokinetic study of pemirolast potassium tablets, with linear Cmax extrapolation; assay type: in vivo, human; details: linear extrapolation from 42.5 mg multiple dose
# Protocol: This study comprised 18 healthy male subjects, 18-45 years of age, and was a single and multiple-dose, open study assessing the safety and tolerability of pemirolast potassium tablets (10 mg, Ulgixal™ tablets) with the doses 10, 30 and 50 mg (containing 8.5, 25.5 and 42.5 mg pemirolast free acid, respectively) b.i.d. (6 subjects in each dose group). The subjects received a single dose on the first day, then b.i.d. for three days and a single dose on the fifth day. The study was performed at the Berzelius Clinical Research Center AB in Linköping, Sweden. All laboratory pharmacokinetic analyses were performed by Quintiles AB, Uppsala, Sweden. Pharmacokinetic calculations were performed by Pharm Assist Sweden AB, Uppsala, Sweden. Mean Cmax data after multiple dosing are shown in and Table 1, and mean plasma concentrations over time on Day 5 are shown in FIG. 1. Based on these clinical data, Cmax predictions were made (assumption: Linear pharmacokinetics when extrapolating to higher dose levels) and are presented in Table 2.
# prostaglandin D2 = assay: Urinary excretion of 11β-PGF2α (PGD2 metabolite, mast cell biomarker), EIA; assay type: in vivo, human; details: for baseline production of PGD2 in asthmatics without ongoing attacks: n=22-24
# Protocol: A secondary endpoint in the study was to analyse changes in urinary excretion of a metabolite (11β-prostaglandin (PG) F2α) of the lung mast cell mediator/biomarker prostaglandin D2. 11β-PGF2α analysis was performed in unextracted urine samples using a validated enzyme immunoassays (EIA) kit from Cayman Chemical, Ann Arbor, Mich., USA (Item no 516521). Absolute values of the mediators were expressed as nanograms 11β-PGF2α per millimole creatinine.
# • a) Withdrawal from trial visit criteria to be checked • b) Urine sampling for 11β-PGF2α analysis • c) Blood sampling for haematology and blood biochemistry • d) Vital signs, physical examination, adverse events and concomitant medication 2) Administration of IMP 3 hours (+/−10 min) before the mannitol challenge 3) Before mannitol challenge: • a) <10 min before: Urine sampling for 11β-PGF2α analysis • b) <10 min before: Blood sampling for analysis of plasma pemirolast concentration 4) Mannitol test 3 hours (+/−10 min) after IMP administration 5) After mannitol challenge: • a) Urine sampling for 11β-PGF2α, 30 minutes after mannitol challenge • b) Pregnancy test (Visit 4 only, in addition to prior to enrolment) • e) Recording of concomitant medication just before sending the patient home • f) Reporting of AEs just before sending the subject home
# Prostaglandin D2 (PGD2) is released from mast cells (e.g. in the lung) and is known as a mediator of asthmatic bronchoconstriction (Hardy et al, N. Engl. J. Med., 311, 209 (1984)). Urinary levels of the PGD2 metabolite 11β-PGF2α increase acutely during asthmatic attacks, including those induced by mannitol inhalation (Brannan et al, Eur. Respir. J., 22, 491 (2003)). This PGD2 metabolite is therefore used as a biomarker for mast cell activation in asthmatics.
# [5] = system: asthma patients challenged with mannitol inhalation; assay: Clinical trial: mannitol challenge test in asthma patients (PD15, FEV1, safety); assay type: in vivo, human; details: for long-term prophylactic effect on mannitol-induced asthma (mannitol PD15 at placebo visit): n=4
# Protocol: This study comprised male and female asthma patients (18 to 46 years of age) with a positive asthma test (as determined by a mannitol challenge test (vide infra) performed within 15 days prior to enrolment at the first screening visit, Visit 1).
# It was a double-blind, randomized, placebo-controlled, cross-over trial assessing the efficacy of orally administered single doses of placebo and 40 mg and 400 mg of pemirolast (immediate release tablets containing pemirolast sodium hemihydrate, as well as microcrystalline cellulose, mannitol, copovidone fine, croscarmellose sodium, anhydrous colloidal silica and magnesium stearate) in patients challenged with mannitol inhalation as described below.
# The patients were exposed to the different treatments at three separate hospital visits at least 2 (mean 6.8, median 6) days apart. The data reported in FIGS. 5 and 6 below represent the patients that received placebo treatment at the first visit (n=8) or placebo at the second visit (after 40 mg at the first visit (n=4) or after 400 mg at the first visit (n=4)).
# All doses were administered 3 hours before initiation of the mannitol challenge test to ensure peak plasma concentrations of pemirolast when the mannitol challenge was performed (blood samples for analysing plasma concentrations of pemirolast were collected 3 hours after drug administration).
# There were 5 visits during the trial: A screening visit (Visit 1, within 15 days before Visit 2), three visits for treatment with Investigational Medicinal Products (IMP; pemirolast 40 or 400 mg, or placebo) (Visit 2-4, spaced at least 2 days apart), and a final follow-up visit by telephone (Visit 5, at least 2, but less than 4 days after Visit 4 and within 30 days of Visit 2).
# The primary endpoint in the study was the Provocation Dose (PD) of mannitol resulting in a 15% fall in Forced Expiratory Volume during 1 second (FEV1; values given in Litres (L)) (PD15 for mannitol), which is recognised by regulatory authorities as an acceptable method to evaluate potential efficacy of asthma drugs (European Medicines Agency. Note for Guidance on Clinical Investigation of Medicinal Products for Treatment of Asthma, 2013).
# The mannitol challenge test (Aridol®, Pharmaxis Ltd, Frenchs Forest, Sydney Australia) was performed as follows: application of nose clip and challenge with 0 (empty capsule acting as placebo), 5, 10, 20, 40, 80, 160, 160, 160 and 160 mg of mannitol via the Halermatic (the 80 and 160 mg doses were given as multiple doses of 40 mg capsules). After inhalation, subjects were instructed to hold their breath for 5 seconds.
# At least 2 repeatable FEV1 manoeuvres were performed 60 seconds after each dose and the highest FEV1 was used in the calculation. […]
# [6] = system: isolated guinea pig trachea; details: trachea pre-constricted with acetylcholine, histamine, serotonin and barium chloride; cited from earlier work
# [7] = twice daily 50 mg doses in humans; cited from earlier work
# hERG potassium channel, sequence (Q12809 whole entry): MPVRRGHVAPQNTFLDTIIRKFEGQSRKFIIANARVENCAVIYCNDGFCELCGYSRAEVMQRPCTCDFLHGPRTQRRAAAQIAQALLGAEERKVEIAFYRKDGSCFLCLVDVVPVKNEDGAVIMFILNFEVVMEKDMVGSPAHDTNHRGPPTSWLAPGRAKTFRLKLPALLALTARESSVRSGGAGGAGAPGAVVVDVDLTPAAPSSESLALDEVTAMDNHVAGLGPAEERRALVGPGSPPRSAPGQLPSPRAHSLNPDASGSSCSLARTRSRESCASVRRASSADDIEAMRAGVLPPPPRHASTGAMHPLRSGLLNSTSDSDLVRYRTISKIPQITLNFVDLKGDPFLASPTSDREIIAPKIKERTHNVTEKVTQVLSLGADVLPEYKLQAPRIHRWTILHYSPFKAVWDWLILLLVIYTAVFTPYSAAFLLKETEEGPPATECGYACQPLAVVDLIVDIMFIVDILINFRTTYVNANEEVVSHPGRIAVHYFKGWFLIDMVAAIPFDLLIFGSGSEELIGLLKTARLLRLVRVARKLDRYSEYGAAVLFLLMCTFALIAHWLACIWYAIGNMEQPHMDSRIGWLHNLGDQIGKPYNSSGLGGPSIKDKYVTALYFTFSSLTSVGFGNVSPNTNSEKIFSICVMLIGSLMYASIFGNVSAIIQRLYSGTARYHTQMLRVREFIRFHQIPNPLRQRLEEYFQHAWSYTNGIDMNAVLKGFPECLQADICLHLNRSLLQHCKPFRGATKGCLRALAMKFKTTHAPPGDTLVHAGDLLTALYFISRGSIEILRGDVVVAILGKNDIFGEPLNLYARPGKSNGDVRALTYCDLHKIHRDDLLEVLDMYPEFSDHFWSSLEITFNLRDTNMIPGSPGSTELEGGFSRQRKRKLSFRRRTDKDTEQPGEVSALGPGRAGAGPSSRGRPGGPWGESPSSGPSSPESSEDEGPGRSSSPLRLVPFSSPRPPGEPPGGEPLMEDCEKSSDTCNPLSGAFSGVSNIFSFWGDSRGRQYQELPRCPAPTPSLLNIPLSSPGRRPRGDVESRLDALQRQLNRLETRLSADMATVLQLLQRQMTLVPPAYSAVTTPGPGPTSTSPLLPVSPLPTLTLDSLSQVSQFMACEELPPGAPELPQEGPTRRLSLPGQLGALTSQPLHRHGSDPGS
smiles,measurement,setting,value
Cc1cccn2c(=O)c(-c3nnn[nH]3)cnc12 [pemirolast potassium],safe chronic dose in dogs,[1],75 mg/kg daily
same,decrease of hERG tail current amplitude,hERG potassium channel; 2.7 μg/mL,5.4%
same,decrease of hERG tail current amplitude,hERG potassium channel; 8 μg/mL,10.2%
same,decrease of hERG tail current amplitude,hERG potassium channel; 26.6 μg/mL,14.1%
same,decrease of hERG tail current amplitude,hERG potassium channel; 79.9 μg/mL,19.0%
Cc1cccn2c(=O)c(-c3nnn[nH]3)cnc12 [pemirolast],effect on bronchoconstriction induced by U-46619,"human bronchial tissue; 10 μg/mL pemirolast, 100 nM U-46619, n=2",partially reversed
same,effect on bronchoconstriction induced by potassium chloride,"human bronchial tissue; 10 μg/mL pemirolast, KCl 30 mM, n=2",no effect
same,effect on bronchoconstriction induced by carbachol,"human bronchial tissue; 10 μg/mL pemirolast, n=4",no effect
same,effect on bronchoconstriction induced by histamine,"human bronchial tissue; 10 μg/mL pemirolast, n=3",no effect
same,effect on bronchoconstriction induced by leukotriene D4,"human bronchial tissue; 10 μg/mL pemirolast, leukotriene D4 1 nM, n=3",no effect
same,reversal of PGF2α-induced bronchoconstriction (force),"human bronchial tissue; 10 μg/ml pemirolast, PGF2α 3 μM pre-contraction, within 15 min, n=4, vehicle 6.8±3.1%",21.5±4.4%
same,reduction of PGF2α-induced bronchoconstriction (force),"human bronchial tissue; 110 μg/mL pemirolast (cumulative), PGF2α 3 μM pre-contraction, within 40 min, n=4, vehicle 18.6±4.9%",72.0±12.6%
same,effect on bronchoconstriction induced by U-46619,"human bronchial tissue; 110 μg/mL pemirolast, 100 nM U-46619",partial reversal
same,effect on the response to KCl,"human bronchial tissue; 110 μg/mL pemirolast, KCl 30 mM",little effect
same,effect on bronchoconstriction induced by carbachol,human bronchial tissue; 110 μg/mL pemirolast,partial reversal
same,effect on bronchoconstriction induced by histamine,human bronchial tissue; 110 μg/mL pemirolast,partial reversal
same,effect on the response to leukotriene D4,"human bronchial tissue; 110 μg/mL pemirolast, leukotriene D4 1 nM",little effect
same,safety and tolerability,[2],safe and well-tolerated
same,effect on bronchoconstriction,isolated tracheal muscle; much higher concentrations than 10 μg/mL,some effect
same,effect on bronchoconstriction induced by PGF2α,isolated tracheal muscle; pre-treatment at 10 μg/mL,no effect
same,effect on bronchoconstriction induced by leukotriene D4,isolated tracheal muscle; pre-treatment at 10 μg/mL,no effect
same,PAF-induced bronchoconstriction,[3],inhibited
same,antigen-induced bronchoconstriction,[3],inhibited
same,Predicted Cmax,[4]; predicted for 125 mg,10070 ng/mL
same,Predicted Cmax,[4]; predicted for 200 mg,16120 ng/mL
same,Predicted Cmax,[4]; predicted for 400 mg,32230 ng/mL
same,baseline production of PGD2 in asthmatics without ongoing attacks,prostaglandin D2; 3 hours after administration of 40 mg,not
same,baseline production of PGD2 in asthmatics without ongoing attacks,prostaglandin D2; 3 hours after administration of 400 mg,significantly reduced
same,"urinary levels of the PGD2 biomarker (11β-PGF2α), 400 mg versus 40 mg previous treatment","prostaglandin D2; patients treated at least 3 days before with 40 mg or 400 mg, 4+4 patients",did not differ
same,mannitol PD15,"[5]; 3 hour pre-treatment, oral single dose (pemirolast sodium hemihydrate tablets), asthma patients",increased
same,long-term prophylactic effect on mannitol-induced asthma (mannitol PD15 at placebo visit),[5]; placebo treatment preceded by 40 mg dose p.o.,not seen
same,long-term prophylactic effect on mannitol-induced asthma (mannitol PD15 at placebo visit),[5]; single 400 mg dose p.o. given at least 3 days before placebo/mannitol,resulted in a prophylactic effect; also recorded: tolerated a much higher dose of mannitol
same,"adverse events, vital signs, physical examination, haematology and blood biochemistry","[5]; single oral doses 40 mg and 400 mg, asthma patients",no serious adverse events
same,potency relative to theophylline,[6],one seventh
same,direct bronchodilator activity when used clinically,[7],no direct bronchodilator activity
